Reference: patent US12281080B2, “Quinoline-based compounds and methods of inhibiting CDK8/19” (University of South Carolina, priority 2018, dated 2025)

Experiments:
PRKCH = PRKCH (Homo sapiens (Human), UniProt P24723); test: KINOMEscan scanMAX; type: binding; settings: 2000 nM; read-out: Percent Control
YSK1 (STK25) = YSK1 (STK25) (Homo sapiens (Human), UniProt O00506); test: KINOMEscan scanMAX; type: binding; settings: 2000 nM; read-out: Percent Control
PHKG1 = PHKG1 (Homo sapiens (Human), UniProt Q16816); test: KINOMEscan scanMAX; type: binding; settings: 2000 nM; read-out: Percent Control
KIT(D816H) = KIT(D816H) (Homo sapiens (Human), UniProt P10721, D816H); test: KINOMEscan scanMAX; type: binding; settings: 2000 nM; read-out: Percent Control
MAP3K3 = MAP3K3 (Homo sapiens (Human), UniProt Q99759); test: KINOMEscan scanMAX; type: binding; settings: 2000 nM; read-out: Percent Control
PDPK1 = PDPK1 (Homo sapiens (Human), UniProt O15530); test: KINOMEscan scanMAX; type: binding; settings: 2000 nM; read-out: Percent Control
RET(M918T) = RET(M918T) (Homo sapiens (Human), UniProt P07949, M918T); test: KINOMEscan scanMAX; type: binding; settings: 2000 nM; read-out: Percent Control
LZK (MAP3K13) = LZK (MAP3K13) (Homo sapiens (Human), UniProt O43283); test: KINOMEscan scanMAX; type: binding; settings: 2000 nM; read-out: Percent Control
[1] = molecular target: RPS6KA5(Kin.Dom.1-N-terminal) (Homo sapiens (Human), UniProt O75582); test: KINOMEscan scanMAX; type: binding; settings: 2000 nM; read-out: Percent Control
NEK11 = NEK11 (Homo sapiens (Human), UniProt Q8NG66); test: KINOMEscan scanMAX; type: binding; settings: 2000 nM; read-out: Percent Control
CSK = CSK (Homo sapiens (Human), UniProt P41240); test: KINOMEscan scanMAX; type: binding; settings: 2000 nM; read-out: Percent Control
ERN1 = ERN1 (Homo sapiens (Human), UniProt O75460); test: KINOMEscan scanMAX; type: binding; settings: 2000 nM; read-out: Percent Control
SLK = SLK (Homo sapiens (Human), UniProt Q9H2G2); test: KINOMEscan scanMAX; type: binding; settings: 2000 nM; read-out: Percent Control
EGFR(L861Q) = EGFR(L861Q) (Homo sapiens (Human), UniProt P00533, L861Q); test: KINOMEscan scanMAX; type: binding; settings: 2000 nM; read-out: Percent Control
MEK6 (MAP2K6) = MEK6 (MAP2K6) (Homo sapiens (Human), UniProt P52564); test: KINOMEscan scanMAX; type: binding; settings: 2000 nM; read-out: Percent Control
CDK5 = CDK5 (Homo sapiens (Human), UniProt Q00535); test: KINOMEscan scanMAX; type: binding; settings: 2000 nM; read-out: Percent Control
FLT3(ITD) = test: KINOMEscan scanMAX; type: binding, human; settings: 2000 nM
GSK3B = GSK3B (Homo sapiens (Human), UniProt P49841); test: KINOMEscan scanMAX; type: binding; settings: 2000 nM; read-out: Percent Control
MARK3 = MARK3 (Homo sapiens (Human), UniProt P27448); test: KINOMEscan scanMAX; type: binding; settings: 2000 nM; read-out: Percent Control
IRAK1 = IRAK1 (Homo sapiens (Human), UniProt P51617); test: KINOMEscan scanMAX; type: binding; settings: 2000 nM; read-out: Percent Control
[2] = molecular target: RSK2(Kin.Dom.2-C-terminal) (RPS6KA3) (Homo sapiens (Human), UniProt P51812); test: KINOMEscan scanMAX; type: binding; settings: 2000 nM; read-out: Percent Control
ASK1 (MAP3K5) = ASK1 (MAP3K5) (Homo sapiens (Human), UniProt Q99683); test: KINOMEscan scanMAX; type: binding; settings: 2000 nM; read-out: Percent Control
PHKG2 = PHKG2 (Homo sapiens (Human), UniProt P15735); test: KINOMEscan scanMAX; type: binding; settings: 2000 nM; read-out: Percent Control
ERK3 (MAPK6) = ERK3 (MAPK6) (Homo sapiens (Human), UniProt Q16659); test: KINOMEscan scanMAX; type: binding; settings: 2000 nM; read-out: Percent Control
CSNK1G3 = CSNK1G3 (Homo sapiens (Human), UniProt Q9Y6M4); test: KINOMEscan scanMAX; type: binding; settings: 2000 nM; read-out: Percent Control
TLK2 = TLK2 (Homo sapiens (Human), UniProt Q86UE8); test: KINOMEscan scanMAX; type: binding; settings: 2000 nM; read-out: Percent Control
FLT3(D835H) = FLT3(D835H) (Homo sapiens (Human), UniProt P36888, D835H); test: KINOMEscan scanMAX; type: binding; settings: 2000 nM; read-out: Percent Control
TNNI3K = TNNI3K (Homo sapiens (Human), UniProt Q59H18); test: KINOMEscan scanMAX; type: binding; settings: 2000 nM; read-out: Percent Control
[3] = molecular target: ABL1(F317L)-nonphosphorylated (Homo sapiens (Human), UniProt P00519, F317L); test: KINOMEscan scanMAX; type: binding; settings: 2000 nM; read-out: Percent Control
SYK = SYK (Homo sapiens (Human), UniProt P43405); test: KINOMEscan scanMAX; type: binding; settings: 2000 nM; read-out: Percent Control
CAMK2A = CAMK2A (Homo sapiens (Human), UniProt Q9UQM7); test: KINOMEscan scanMAX; type: binding; settings: 2000 nM; read-out: Percent Control
PIK3CB = PIK3CB (Homo sapiens (Human), UniProt P42338); test: KINOMEscan scanMAX; type: binding; settings: 2000 nM; read-out: Percent Control
HIPK4 = HIPK4 (Homo sapiens (Human), UniProt Q8NE63); test: KINOMEscan scanMAX; type: binding; settings: 2000 nM; read-out: Percent Control
FRK = FRK (Homo sapiens (Human), UniProt P42685); test: KINOMEscan scanMAX; type: binding; settings: 2000 nM; read-out: Percent Control
LNCaP-C4-2 cells = test: PSA production (ELISA) in LNCaP-C4-2 cells; type: cell-based, human; settings: 4 days treatment, conditioned media
Method: Prostate cancer LNCaP-C4-2 cells were treated with different concentrations of the compounds for 4 days and the conditioned media were collected for quantification of prostate specific antigen (PSA) with an ELISA kit.

[4] = molecular target: EGFR(L747-E749del, A750P) (Homo sapiens (Human), UniProt P00533, A750P/DEL747-749); test: KINOMEscan scanMAX; type: binding; settings: 2000 nM; read-out: Percent Control
AKT2 = AKT2 (Homo sapiens (Human), UniProt P31751); test: KINOMEscan scanMAX; type: binding; settings: 2000 nM; read-out: Percent Control
[5] = molecular target: RSK4(Kin.Dom.1-N-terminal) (RPS6KA6) (Homo sapiens (Human), UniProt Q9UK32); test: KINOMEscan scanMAX; type: binding; settings: 2000 nM; read-out: Percent Control
RSK4(Kin.Dom.1-N-terminal) (RPS6KA6), sequence (Q9UK32 73-330): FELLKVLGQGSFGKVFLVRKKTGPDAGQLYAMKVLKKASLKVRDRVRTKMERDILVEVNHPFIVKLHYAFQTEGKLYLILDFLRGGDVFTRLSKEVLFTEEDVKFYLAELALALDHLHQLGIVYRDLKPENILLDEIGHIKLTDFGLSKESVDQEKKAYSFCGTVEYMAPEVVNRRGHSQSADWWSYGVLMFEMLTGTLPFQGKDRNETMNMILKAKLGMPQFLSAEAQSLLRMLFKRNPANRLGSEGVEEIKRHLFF

RPS6KA5(Kin.Dom.1-N-terminal), sequence (O75582 49-318): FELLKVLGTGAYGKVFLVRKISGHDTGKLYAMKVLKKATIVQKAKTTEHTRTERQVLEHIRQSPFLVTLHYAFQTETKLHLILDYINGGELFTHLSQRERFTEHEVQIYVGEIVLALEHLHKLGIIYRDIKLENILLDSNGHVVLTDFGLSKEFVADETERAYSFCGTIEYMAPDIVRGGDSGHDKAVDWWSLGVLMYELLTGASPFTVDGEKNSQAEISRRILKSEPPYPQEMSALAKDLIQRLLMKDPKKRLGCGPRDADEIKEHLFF
TNNI3K, sequence (Q59H18 whole entry): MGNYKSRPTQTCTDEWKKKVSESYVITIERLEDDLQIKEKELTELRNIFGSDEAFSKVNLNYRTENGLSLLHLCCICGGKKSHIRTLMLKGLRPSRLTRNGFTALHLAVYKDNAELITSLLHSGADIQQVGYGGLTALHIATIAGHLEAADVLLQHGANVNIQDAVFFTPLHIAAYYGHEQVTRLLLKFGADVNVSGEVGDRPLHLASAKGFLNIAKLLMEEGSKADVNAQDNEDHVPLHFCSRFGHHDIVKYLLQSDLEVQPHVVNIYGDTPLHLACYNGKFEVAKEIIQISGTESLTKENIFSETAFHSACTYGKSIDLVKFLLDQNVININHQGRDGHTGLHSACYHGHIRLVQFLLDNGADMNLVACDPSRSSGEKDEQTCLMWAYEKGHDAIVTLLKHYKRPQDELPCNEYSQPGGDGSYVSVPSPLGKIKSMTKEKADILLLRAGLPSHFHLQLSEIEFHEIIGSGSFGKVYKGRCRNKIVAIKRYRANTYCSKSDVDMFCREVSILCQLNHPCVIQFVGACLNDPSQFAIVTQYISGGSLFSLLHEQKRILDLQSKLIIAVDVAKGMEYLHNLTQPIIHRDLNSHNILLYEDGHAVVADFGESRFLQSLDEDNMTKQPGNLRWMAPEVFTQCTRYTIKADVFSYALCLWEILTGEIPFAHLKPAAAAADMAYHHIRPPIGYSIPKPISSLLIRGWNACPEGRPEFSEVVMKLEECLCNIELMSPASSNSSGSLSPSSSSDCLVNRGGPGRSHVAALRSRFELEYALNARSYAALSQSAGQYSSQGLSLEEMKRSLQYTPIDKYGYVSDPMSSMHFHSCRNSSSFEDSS
IRAK1, sequence (P51617 whole entry): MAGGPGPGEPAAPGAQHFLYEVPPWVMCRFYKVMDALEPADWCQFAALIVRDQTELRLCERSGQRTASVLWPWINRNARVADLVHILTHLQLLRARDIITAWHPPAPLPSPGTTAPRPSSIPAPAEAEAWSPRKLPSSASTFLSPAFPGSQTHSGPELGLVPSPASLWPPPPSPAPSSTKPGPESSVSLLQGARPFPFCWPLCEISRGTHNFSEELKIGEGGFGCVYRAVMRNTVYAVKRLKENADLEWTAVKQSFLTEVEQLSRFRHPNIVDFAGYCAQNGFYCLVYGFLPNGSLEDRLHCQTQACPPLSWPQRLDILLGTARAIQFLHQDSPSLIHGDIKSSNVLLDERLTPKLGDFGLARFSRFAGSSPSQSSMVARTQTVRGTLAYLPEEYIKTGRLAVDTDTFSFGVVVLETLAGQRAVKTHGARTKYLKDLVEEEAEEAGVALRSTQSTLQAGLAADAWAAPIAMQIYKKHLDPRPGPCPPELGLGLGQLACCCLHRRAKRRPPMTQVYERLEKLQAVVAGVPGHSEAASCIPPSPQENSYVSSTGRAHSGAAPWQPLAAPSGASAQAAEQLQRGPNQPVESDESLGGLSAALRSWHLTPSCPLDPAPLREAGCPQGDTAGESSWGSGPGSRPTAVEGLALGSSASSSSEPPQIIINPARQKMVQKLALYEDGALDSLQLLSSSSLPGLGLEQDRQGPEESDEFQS
EGFR(L747-E749del, A750P), sequence (P00533 other isoform, or with tags, fused parts or gaps A750P/del L747-E749): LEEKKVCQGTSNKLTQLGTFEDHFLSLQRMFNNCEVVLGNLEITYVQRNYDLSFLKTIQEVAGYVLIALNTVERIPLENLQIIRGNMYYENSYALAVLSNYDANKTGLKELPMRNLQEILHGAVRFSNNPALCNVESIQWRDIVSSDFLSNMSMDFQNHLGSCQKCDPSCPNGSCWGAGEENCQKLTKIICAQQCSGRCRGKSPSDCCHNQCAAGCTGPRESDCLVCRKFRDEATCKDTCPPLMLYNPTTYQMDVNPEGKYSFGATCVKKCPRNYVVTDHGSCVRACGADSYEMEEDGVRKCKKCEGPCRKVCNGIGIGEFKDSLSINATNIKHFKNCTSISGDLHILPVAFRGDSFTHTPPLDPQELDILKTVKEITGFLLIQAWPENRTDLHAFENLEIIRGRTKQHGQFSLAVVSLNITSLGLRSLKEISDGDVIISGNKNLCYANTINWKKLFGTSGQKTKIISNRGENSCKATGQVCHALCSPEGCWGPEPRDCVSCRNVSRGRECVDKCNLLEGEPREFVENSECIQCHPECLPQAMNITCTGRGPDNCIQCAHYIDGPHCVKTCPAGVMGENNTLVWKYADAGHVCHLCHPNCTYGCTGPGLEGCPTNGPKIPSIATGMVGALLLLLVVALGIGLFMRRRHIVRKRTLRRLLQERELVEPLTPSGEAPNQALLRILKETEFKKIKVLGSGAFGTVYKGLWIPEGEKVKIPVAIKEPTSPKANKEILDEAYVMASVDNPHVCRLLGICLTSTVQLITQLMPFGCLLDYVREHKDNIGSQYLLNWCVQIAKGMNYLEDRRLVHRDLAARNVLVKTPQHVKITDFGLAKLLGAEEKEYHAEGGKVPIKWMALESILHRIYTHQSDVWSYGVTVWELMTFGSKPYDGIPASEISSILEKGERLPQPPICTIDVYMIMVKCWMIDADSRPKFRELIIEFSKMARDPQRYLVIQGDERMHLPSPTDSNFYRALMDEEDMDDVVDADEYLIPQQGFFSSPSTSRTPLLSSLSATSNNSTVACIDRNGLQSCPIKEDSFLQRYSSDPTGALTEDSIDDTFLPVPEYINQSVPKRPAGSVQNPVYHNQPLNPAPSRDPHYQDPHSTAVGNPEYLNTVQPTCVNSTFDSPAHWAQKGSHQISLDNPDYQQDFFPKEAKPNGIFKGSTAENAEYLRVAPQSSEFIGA
AKT2, sequence (P31751 whole entry): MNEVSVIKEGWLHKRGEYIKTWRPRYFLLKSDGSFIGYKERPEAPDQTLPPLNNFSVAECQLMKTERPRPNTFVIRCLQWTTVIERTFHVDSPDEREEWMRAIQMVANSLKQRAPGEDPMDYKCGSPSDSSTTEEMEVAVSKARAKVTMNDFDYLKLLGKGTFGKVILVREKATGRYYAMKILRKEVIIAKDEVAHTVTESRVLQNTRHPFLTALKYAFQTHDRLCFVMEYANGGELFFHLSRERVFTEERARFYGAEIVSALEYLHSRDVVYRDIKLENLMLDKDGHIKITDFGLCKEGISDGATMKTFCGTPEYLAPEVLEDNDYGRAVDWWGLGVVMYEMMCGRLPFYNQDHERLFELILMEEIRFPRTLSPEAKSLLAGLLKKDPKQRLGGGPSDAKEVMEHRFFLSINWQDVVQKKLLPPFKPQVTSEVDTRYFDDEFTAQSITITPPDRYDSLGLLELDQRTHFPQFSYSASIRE
RET(M918T), sequence (P07949 29-1114 M918T): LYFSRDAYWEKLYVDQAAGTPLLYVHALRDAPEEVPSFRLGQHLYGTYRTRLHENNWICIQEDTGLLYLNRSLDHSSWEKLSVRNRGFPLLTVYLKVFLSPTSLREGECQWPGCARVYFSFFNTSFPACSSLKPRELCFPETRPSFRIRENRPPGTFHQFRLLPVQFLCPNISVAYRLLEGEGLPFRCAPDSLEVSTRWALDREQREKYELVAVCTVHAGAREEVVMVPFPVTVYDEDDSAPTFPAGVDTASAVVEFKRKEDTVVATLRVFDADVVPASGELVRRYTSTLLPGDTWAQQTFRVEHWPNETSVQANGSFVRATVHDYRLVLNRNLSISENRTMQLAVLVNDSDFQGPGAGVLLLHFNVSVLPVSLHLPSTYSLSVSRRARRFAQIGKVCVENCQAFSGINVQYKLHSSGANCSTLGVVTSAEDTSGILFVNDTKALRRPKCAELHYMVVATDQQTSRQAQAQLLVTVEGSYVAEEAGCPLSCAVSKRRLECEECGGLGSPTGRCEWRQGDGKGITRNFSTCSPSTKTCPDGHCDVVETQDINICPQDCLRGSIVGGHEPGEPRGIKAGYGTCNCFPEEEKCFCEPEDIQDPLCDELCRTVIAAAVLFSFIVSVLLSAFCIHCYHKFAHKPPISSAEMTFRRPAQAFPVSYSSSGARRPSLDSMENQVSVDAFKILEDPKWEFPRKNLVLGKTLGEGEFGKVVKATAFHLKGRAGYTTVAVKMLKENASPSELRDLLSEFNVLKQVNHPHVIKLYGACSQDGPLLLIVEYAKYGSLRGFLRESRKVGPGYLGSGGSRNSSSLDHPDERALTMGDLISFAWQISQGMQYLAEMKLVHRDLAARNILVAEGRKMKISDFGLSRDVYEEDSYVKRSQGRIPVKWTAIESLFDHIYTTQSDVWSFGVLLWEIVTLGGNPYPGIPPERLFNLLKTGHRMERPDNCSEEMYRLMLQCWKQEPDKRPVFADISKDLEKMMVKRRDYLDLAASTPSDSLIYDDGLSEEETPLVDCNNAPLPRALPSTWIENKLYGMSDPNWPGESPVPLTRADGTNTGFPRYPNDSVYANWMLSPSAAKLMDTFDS

**Q.** For `CN1CCN(C(=O)c2ccc3cc(CCNc4ccnc5ccc(C#N)cc45)ccc3c2)CC1` [compound 6148, 4-((2-(6-(4-methylpiperazine-1-carbonyl)naphthalen-2-yl)ethyl)amino)quinoline-6-carbonitrile], which remaining binding at 2 µM (PRKCH) is on record?
**A.** Its remaining binding at 2 µM is 91%.

**Q.** And the remaining binding at 2 µM (YSK1 (STK25))?
**A.** The remaining binding at 2 µM was 83%.

**Q.** And the remaining binding at 2 µM (PHKG1)?
**A.** The remaining binding at 2 µM was 95%.

**Q.** And the remaining binding at 2 µM (KIT(D816H))?
**A.** Its remaining binding at 2 µM is 57%.

**Q.** What about the remaining binding at 2 µM (MAP3K3) of the same molecule?
**A.** Its remaining binding at 2 µM is 83%.

**Q.** And the remaining binding at 2 µM (PDPK1)?
**A.** Its remaining binding at 2 µM is 86%.

**Q.** And the remaining binding at 2 µM (RET(M918T))?
**A.** Its remaining binding at 2 µM is 85%.

**Q.** And the remaining binding at 2 µM (LZK (MAP3K13))?
**A.** The remaining binding at 2 µM was 46%.

**Q.** What about the remaining binding at 2 µM [1] of the same molecule?
**A.** Its remaining binding at 2 µM is 86%.

**Q.** What about the remaining binding at 2 µM (NEK11) of the same molecule?
**A.** Its remaining binding at 2 µM is 60%.

**Q.** And the remaining binding at 2 µM (CSK)?
**A.** The remaining binding at 2 µM was 85%.

**Q.** What about the remaining binding at 2 µM (ERN1) of the same molecule?
**A.** Its remaining binding at 2 µM is 58%.

**Q.** And the remaining binding at 2 µM (SLK)?
**A.** The remaining binding at 2 µM was 92%.

**Q.** And the remaining binding at 2 µM (EGFR(L861Q))?
**A.** The remaining binding at 2 µM was 64%.

**Q.** And the remaining binding at 2 µM (MEK6 (MAP2K6))?
**A.** Its remaining binding at 2 µM is 80%.

**Q.** And the remaining binding at 2 µM (CDK5)?
**A.** Its remaining binding at 2 µM is 100%.

**Q.** And the “Percent Control” value (FLT3(ITD))?
**A.** The value was 97%.

**Q.** And the remaining binding at 2 µM (GSK3B)?
**A.** The remaining binding at 2 µM was 67%.

**Q.** What about the remaining binding at 2 µM (MARK3) of the same molecule?
**A.** The remaining binding at 2 µM was 94%.

**Q.** What about the remaining binding at 2 µM (IRAK1) of the same molecule?
**A.** The remaining binding at 2 µM was 45%.

**Q.** And the remaining binding at 2 µM [2]?
**A.** Its remaining binding at 2 µM is 65%.

**Q.** What about the remaining binding at 2 µM (ASK1 (MAP3K5)) of the same molecule?
**A.** The remaining binding at 2 µM was 91%.

**Q.** And the remaining binding at 2 µM (PHKG2)?
**A.** The remaining binding at 2 µM was 100%.

**Q.** What about the remaining binding at 2 µM (ERK3 (MAPK6)) of the same molecule?
**A.** Its remaining binding at 2 µM is 89%.

**Q.** And the remaining binding at 2 µM (CSNK1G3)?
**A.** Its remaining binding at 2 µM is 76%.

**Q.** What about the remaining binding at 2 µM (TLK2) of the same molecule?
**A.** The remaining binding at 2 µM was 88%.

**Q.** And the remaining binding at 2 µM (FLT3(D835H))?
**A.** The remaining binding at 2 µM was 88%.

**Q.** What about the remaining binding at 2 µM (TNNI3K) of the same molecule?
**A.** The remaining binding at 2 µM was 100%.

**Q.** What about the remaining binding at 2 µM [3] of the same molecule?
**A.** The remaining binding at 2 µM was 93%.

**Q.** What about the remaining binding at 2 µM (SYK) of the same molecule?
**A.** The remaining binding at 2 µM was 97%.

**Q.** What about the remaining binding at 2 µM (CAMK2A) of the same molecule?
**A.** The remaining binding at 2 µM was 100%.

**Q.** And the remaining binding at 2 µM (PIK3CB)?
**A.** The remaining binding at 2 µM was 64%.

**Q.** What about the remaining binding at 2 µM (HIPK4) of the same molecule?
**A.** Its remaining binding at 2 µM is 75%.

**Q.** What about the remaining binding at 2 µM (FRK) of the same molecule?
**A.** Its remaining binding at 2 µM is 92%.

**Q.** And the “Potency in inhibition of PSA production relative to Senexin B” value (LNCaP-C4-2 cells)?
**A.** The value was roughly 3 fold.

**Q.** What about the remaining binding at 2 µM [4] of the same molecule?
**A.** Its remaining binding at 2 µM is 77%.

**Q.** And the remaining binding at 2 µM (AKT2)?
**A.** Its remaining binding at 2 µM is 100%.

**Q.** And the remaining binding at 2 µM [5]?
**A.** Its remaining binding at 2 µM is 60%.
